Assay results reported in US20250214976A1, “GPR35 MODULATORS AND USES THEREOF” (Crossignal Therapeutics, Inc., priority 2022, published 2025).
pIC50: −log10 of the molar value.

Each compound was assayed against T1, human GPR35 (Homo sapiens, UniProt Q9HC97) (assay: Luciferase Reporter Assay (YAP responsive element) in HEK293 cells stably transfected with human GPR35). Conditions: overnight incubation.
T1 construct: expressed in transfected cells; host or cells: HEK293
Type: cell-based
Description: HEK293 cells stably transfected with human GPR35 were maintained in Dulbecco's Modified Eagle Medium (DMEM) supplemented with 10% FBS and 300 μg/mL Zeocin and 200 μg/mL Hygromycin at 37° C., 10% CO2. On Day 1, cells were plated in poly-D-lysine coated 96-well tissue culture plate in regular growth medium (DMEM/10% FBS/300 μg/mL Zeocin/200 μg/mL Hygromycin. On the next day, luciferase reporter plasmid DNA with YAP responsive element was transfected into cells using lipofectamine 2000 (Invitrogen) following manufacture's protocol. After transfection for 6 hr., cells were treated with testing compounds in fasting DMEM medium (phenol red free, FBS free) at varying compound concentrations ranging from 10 μM to […] in a 3-fold serial diluted fashion. After an overnight incubation, the luciferase activities were measured with SteadyLite Plus Kit (PerkinElmer) according to manufacturer's protocol. IC50 was determined by fitting the dose-response data to a four-parameter logistic curve using GraphPad Prism.
The symbol “+” indicates IC50 is greater than […]. “++” indicates IC50>100 nM but ≤[…]. “+++” indicates IC50≤100 nM.

T1 sequence (Q9HC97 whole entry): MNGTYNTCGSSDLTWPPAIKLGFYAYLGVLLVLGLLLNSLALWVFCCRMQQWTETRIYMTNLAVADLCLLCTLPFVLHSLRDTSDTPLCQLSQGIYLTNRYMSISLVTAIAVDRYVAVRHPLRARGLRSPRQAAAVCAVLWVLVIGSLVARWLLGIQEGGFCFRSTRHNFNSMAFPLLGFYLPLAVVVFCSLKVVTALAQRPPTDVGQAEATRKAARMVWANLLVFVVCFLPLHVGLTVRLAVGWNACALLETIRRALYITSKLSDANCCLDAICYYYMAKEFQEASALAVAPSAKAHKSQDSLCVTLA

Compound | pIC50
O=C(Nc1ccc(OC2CCCC2)c(F)c1)c1coc2cc(-c3nnn[nH]3)c(F)cc12 [Compound 1-20, N-(4-(cyclopentyloxy)-3-fluorophenyl)-5-fluoro-6-(1H-tetrazol-5-yl)benzofuran-3-carboxamide] | ≥ 7.00
O=C(Nc1ccc(OCc2ccc(F)c(Cl)c2)cc1)c1coc2cc(-c3nnn[nH]3)c(F)cc12 [Compound 1-43, N-(4-((3-chloro-4-fluorobenzyl)oxy)phenyl)-5-fluoro-6-(1H-tetrazol-5-yl)benzofuran-3-carboxamide] | ≥ 7.00
O=C(Nc1ccc(OC2CCCC2)c(F)c1)c1coc2c(-c3nnn[nH]3)cccc12 [Compound 1-7, N-(4-(cyclopentyloxy)-3-fluorophenyl)-7-(1H-tetrazol-5-yl)benzofuran-3-carboxamide] | < 6.00
O=C(Nc1ccc(OCc2cc(F)c(Cl)cc2F)cc1)c1coc2cc(-c3nnn[nH]3)c(F)cc12 [Compound 1-55, N-(4-((4-chloro-2,5-difluorobenzyl)oxy)phenyl)-5-fluoro-6-(1H-tetrazol-5-yl)benzofuran-3-carboxamide] | 6.00 to 7.00
O=C(Nc1ccc(F)c(F)c1OC1CCCC1)c1coc2cc(-c3nnn[nH]3)ccc12 [Compound 1-12, N-(2-(cyclopentyloxy)-3,4-difluorophenyl)-6-(1H-tetrazol-5-yl)benzofuran-3-carboxamide] | < 6.00
O=C(Nc1ccc(OCc2ccc(F)cc2Cl)c(F)c1)c1coc2cc(OCc3nnn[nH]3)ccc12 [Compound 1-5, 6-((1H-tetrazol-5-yl)methoxy)-N-(4-((2-chloro-4-fluorobenzyl)oxy)-3-fluorophenyl)benzofuran-3-carboxamide] | < 6.00
O=C(Nc1ccc(OC(CF)CF)c(F)c1)c1coc2cc(-c3nnn[nH]3)c(F)cc12 [Compound 1-35, N-(4-((1,3-difluoropropan-2-yl)oxy)-3-fluorophenyl)-5-fluoro-6-(1H-tetrazol-5-yl)benzofuran-3-carboxamide] | 6.00 to 7.00
O=C(Nc1ccc(OC2CCC2)c(F)c1)c1coc2cc(OCc3nnn[nH]3)ccc12 [Compound 1-4, 6-((1H-tetrazol-5-yl)methoxy)-N-(4-cyclobutoxy-3-fluorophenyl)benzofuran-3-carboxamide] | < 6.00
O=C(O)c1ccc2c(C(=O)Nc3ccc(OC4CCC4)c(F)c3)coc2c1 [Compound 1-3, 3-((4-cyclobutoxy-3-fluorophenyl)carbamoyl)benzofuran-6-carboxylic acid] | < 6.00
C[C@H](Oc1ccc(NC(=O)c2coc3cc(-c4nnn[nH]4)c(F)cc23)cc1)c1ccc(F)cc1Cl (single isomer, unassigned) [Compound 1-25] | < 6.00
O=C(Nc1ccc(OCc2cc(F)c(F)cc2Cl)cc1)c1coc2cc(-c3nnn[nH]3)c(F)cc12 [Compound 1-50, N-(4-((2-chloro-4,5-difluorobenzyl)oxy)phenyl)-5-fluoro-6-(1H-tetrazol-5-yl)benzofuran-3-carboxamide] | 6.00 to 7.00
O=C(Nc1ccc(OCc2cc(F)c(Cl)c(F)c2)cc1)c1coc2cc(-c3nnn[nH]3)c(F)cc12 [Compound 1-53, N-(4-((4-chloro-3,5-difluorobenzyl)oxy)phenyl)-5-fluoro-6-(1H-tetrazol-5-yl)benzofuran-3-carboxamide] | ≥ 7.00
C[C@@H](Oc1ccc(NC(=O)c2coc3cc(-c4nnn[nH]4)c(F)cc23)cc1)c1ccc(F)cc1Cl (single isomer, unassigned) [Compound 1-26] | < 6.00
O=C(Nc1ccc(OCc2ccc(Cl)cc2F)cc1)c1coc2cc(-c3nnn[nH]3)c(F)cc12 [Compound 1-41, N-(4-((4-chloro-2-fluorobenzyl)oxy)phenyl)-5-fluoro-6-(1H-tetrazol-5-yl)benzofuran-3-carboxamide] | ≥ 7.00
C[C@@H](Oc1ccc(NC(=O)c2coc3cc(-c4nnn[nH]4)c(F)cc23)cc1F)C(F)(F)F (single isomer, unassigned) [Compound 1-31] | 6.00 to 7.00
O=C(Nc1ccc(OCc2ccc(F)cc2Cl)c(F)c1)c1coc2cc(-c3nnn[nH]3)ccc12 [Compound 1-6, N-(4-((2-chloro-4-fluorobenzyl)oxy)-3-fluorophenyl)-6-(1H-tetrazol-5-yl)benzofuran-3-carboxamide] | 6.00 to 7.00
O=C(Nc1ccc(OCc2ccc(F)cc2Cl)cc1)c1coc2cc(Oc3nnn[nH]3)c(F)cc12 [Compound 1-39, 6-((1H-tetrazol-5-yl)oxy)-N-(4-((2-chloro-4-fluorobenzyl)oxy)phenyl)-5-fluorobenzofuran-3-carboxamide] | 6.00 to 7.00
O=C(Nc1ccc(N2CCC(F)(F)C2)c(F)c1)c1coc2cc(-c3nnn[nH]3)c(F)cc12 [Compound 1-34, N-(4-(3,3-difluoropyrrolidin-1-yl)-3-fluorophenyl)-5-fluoro-6-(1H-tetrazol-5-yl)benzofuran-3-carboxamide] | ≥ 7.00
O=C(Nc1ccc(OC2COC2)c(F)c1)c1coc2cc(-c3nnn[nH]3)c(F)cc12 [Compound 1-28, 5-fluoro-N-(3-fluoro-4-(oxetan-3-yloxy)phenyl)-6-(1H-tetrazol-5-yl)benzofuran-3-carboxamide] | 6.00 to 7.00
O=C(Nc1ccc(OCc2ccc(Cl)c(F)c2)cc1)c1coc2cc(-c3nnn[nH]3)c(F)cc12 [Compound 1-49, N-(4-((4-chloro-3-fluorobenzyl)oxy)phenyl)-5-fluoro-6-(1H-tetrazol-5-yl)benzofuran-3-carboxamide] | ≥ 7.00
O=C(Nc1ccc(O[C@H]2CCOC2)c(F)c1)c1coc2cc(-c3nnn[nH]3)c(F)cc12 [Compound 1-21, (S)-5-fluoro-N-(3-fluoro-4-((tetrahydrofuran-3-yl)oxy)phenyl)-6-(1H-tetrazol-5-yl)benzofuran-3-carboxamide] | 6.00 to 7.00
CC1(Oc2ccc(NC(=O)c3coc4cc(-c5nnn[nH]5)ccc34)cc2F)CC1 [Compound 1-15, N-(3-fluoro-4-(1-methylcyclopropoxy)phenyl)-6-(1H-tetrazol-5-yl)benzofuran-3-carboxamide] | ≥ 7.00
N#Cc1ccc(COc2ccc(NC(=O)c3coc4cc(-c5nnn[nH]5)c(F)cc34)cc2)c(Cl)c1 [Compound 1-46, N-(4-((2-chloro-4-cyanobenzyl)oxy)phenyl)-5-fluoro-6-(1H-tetrazol-5-yl)benzofuran-3-carboxamide] | 6.00 to 7.00
